Data on two compounds can be found in patent publication US10759803B2, “Asparagine endopeptidase (AEP) inhibitors for managing cancer and compositions related thereto” (priority 2014, dated 2020).

Data set [1] has as its target T1, CYP1A2 (Homo sapiens, UniProt P05177).
T1 sequence (P05177 1-516): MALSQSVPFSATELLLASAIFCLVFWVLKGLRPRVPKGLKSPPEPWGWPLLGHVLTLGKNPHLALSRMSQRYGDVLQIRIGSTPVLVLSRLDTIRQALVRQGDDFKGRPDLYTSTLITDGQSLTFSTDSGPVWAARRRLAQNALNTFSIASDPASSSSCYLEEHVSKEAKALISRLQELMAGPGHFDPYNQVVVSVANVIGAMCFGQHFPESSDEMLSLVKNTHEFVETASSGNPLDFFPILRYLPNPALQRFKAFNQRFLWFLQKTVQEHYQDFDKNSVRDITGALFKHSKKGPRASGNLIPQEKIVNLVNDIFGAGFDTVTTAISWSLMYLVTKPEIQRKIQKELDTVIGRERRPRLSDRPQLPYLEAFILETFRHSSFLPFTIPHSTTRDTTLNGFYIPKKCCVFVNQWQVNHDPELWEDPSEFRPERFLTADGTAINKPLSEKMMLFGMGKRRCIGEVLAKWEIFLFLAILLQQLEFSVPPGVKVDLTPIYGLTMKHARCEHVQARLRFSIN
As to the kind of experiment: CYP inhibition screening, CYP1A2. Type of data set: in vitro ADME.

Data set [2] has as its system AEP. In words: AEP activity in OGD-treated primary neurons. It counts as cell-based. The note with it: 0.1 μM or 1.0 μM compound, 5 μM Cbz-Ala-Ala-Asn-AMC. How it is done: (§1) A. AEP activity, measured in primary neuronal cultures with 5 μM Cbz-Ala-Ala-Asn-AMC (x-axis denotes neurons were treated with 0.1 μM or 1.0 μM specified compound). B. Caspase activity, measured in primary neuronal cultures with 5 μM Ac-Asp-Glu-Val-Asp-AMC. C. Cathepsin activity, measured in primary neuronal cultures with 5 μM D-Val-Leu-Lys-AMC. D. Inhibition of APP cleavage. Lysates of primary cortical neurons pre-incubated with compounds for 30 min, underwent OGD for 4 hrs, were reperfused for 18 hrs (normoxia neurons remained at normoxic conditions). E. APP can be cleaved in a dose-dependent manner. Lysates of primary cortical neurons pre-incubated with compounds for 30 min, underwent OGD for 4 hrs, were reperfused for 18 hrs (normoxia neurons remained at normoxic conditions).
(§2) Depriving cells of oxygen and glucose is a cellular model that is employed to trigger acidosis in cultured cells. The efficacy of the compounds in a cellular model of oxygen-glucose deprivation (OGD) was determined in an effort to mimic the effects of stroke in primary cultured neurons. As a result of depriving neurons of oxygen and glucose-containing medium, AEP activity was doubled (FIG. 7A, ‘DMSO-Norm’ compared to ‘DMSO-OGD’), while Caspase-3 and Cathepsin activities remained relatively unchanged. […]

Data set [3] concerns amyloid precursor protein (APP) cleavage. As to the kind of experiment: APP cleavage in OGD-treated primary cortical neurons. Type of data set: cell-based.
Data set [4] deals with CYP2D6 (Homo sapiens, UniProt P10635). As to the kind of experiment: CYP inhibition screening, CYP2D6. It counts as in vitro ADME.
CYP2D6, sequence (P10635 whole entry): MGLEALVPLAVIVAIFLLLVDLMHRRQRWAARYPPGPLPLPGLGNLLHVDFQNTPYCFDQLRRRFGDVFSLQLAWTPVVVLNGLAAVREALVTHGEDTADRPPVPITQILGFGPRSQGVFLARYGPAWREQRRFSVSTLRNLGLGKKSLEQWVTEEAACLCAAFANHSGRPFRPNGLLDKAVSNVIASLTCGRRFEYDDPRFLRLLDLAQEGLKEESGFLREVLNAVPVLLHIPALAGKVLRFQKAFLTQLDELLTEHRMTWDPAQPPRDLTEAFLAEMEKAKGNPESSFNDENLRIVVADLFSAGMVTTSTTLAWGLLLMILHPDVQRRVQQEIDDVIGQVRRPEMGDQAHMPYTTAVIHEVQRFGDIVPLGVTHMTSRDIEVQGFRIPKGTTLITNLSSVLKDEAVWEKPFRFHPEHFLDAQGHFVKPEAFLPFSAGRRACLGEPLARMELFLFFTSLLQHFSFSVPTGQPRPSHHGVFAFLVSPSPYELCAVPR
For data set [5], the system named is Caspase-3. In words: Caspase activity in OGD-treated primary neurons. It counts as cell-based. The note with it: 5 μM Ac-Asp-Glu-Val-Asp-AMC. How it is done:
as §1, §2

For data set [6], the system named is Cathepsin. In words: Cathepsin activity in OGD-treated primary neurons. Type of data set: cell-based. Particulars: 5 μM D-Val-Leu-Lys-AMC. The procedure:
as §1, §2

For data set [7], the target named is T2, AEP (Homo sapiens, UniProt Q99538).
T2 construct: tested with purified active AEP, IC50 values for the top 8 candidates were found
T2 sequence (Q99538 18-323 limits assumed): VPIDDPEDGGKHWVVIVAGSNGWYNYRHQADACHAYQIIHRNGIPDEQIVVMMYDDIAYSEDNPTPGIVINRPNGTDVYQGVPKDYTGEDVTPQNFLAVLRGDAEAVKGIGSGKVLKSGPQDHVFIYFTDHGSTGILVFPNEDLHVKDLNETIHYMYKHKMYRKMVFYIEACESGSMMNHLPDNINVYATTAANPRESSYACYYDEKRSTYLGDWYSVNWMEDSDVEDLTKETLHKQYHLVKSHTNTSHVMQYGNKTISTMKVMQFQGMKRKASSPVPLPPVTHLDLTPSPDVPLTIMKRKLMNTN
In words: DTT / L-cysteine reversibility of AEP inhibition. It counts as biochemical. Particulars: 10 mM DTT or L-cysteine added after 15 min. How it is done:
AEP was reacted with specified inhibitor, after 15 min 10 mM DTT or L-cysteine was added to the reaction and the fluorescent signal was read for an additional 15 min. At the end of the second 15 min incubation, the percentage of product formed in the presence of each compound was determined in comparison to the DMSO control reaction.
Although it is not intended that embodiments of this disclosure be limited by any particular mechanism, to gain additional insight into the mechanism utilized by the inhibitors for abrogation of AEP activity, their reversibility in the presence of free thiols was determined. The addition of a strong reducing agent, such as DTT, or a weaker reducing agent, L-cysteine, to an inhibited reaction can be used to out-compete the inhibitory agent and restore catalytic activity to an enzyme with an active-site thiol residue. Here, a similar approach was used by adding a reducing agent, either DTT or L-cysteine, to a reaction, in which AEP had been incubated with a specified inhibitor, in an attempt to reverse the effects of the inhibitor. […] For compounds BB1 and 38, this increase in enzymatic activity may be due to the reduction of a disulfide linkage between the inhibitor and the enzyme, since these compounds contain thiols. Compound 10 contains a thiocyanate and may undergoes nucleophilic attack by the enzyme's active-site thiolate to form a thioimidate enzyme-inhibitor complex. Under acidic conditions, this complex is reducible by either a strong reducing agent, such as DTT, or the weaker L-cysteine.

Regarding `Nc1ccc(N2CCOCC2)c2nonc12` [Compound 11], the CYP1A2 inhibition in data set [1] (3 μM) turned out to be 13.1%; in data set [1] (10 μM), 37.0%. The “AEP activity in OGD neurons” value in data set [2] is listed as “marked dose-dependent decrease”. The “APP cleavage after OGD” value in data set [3] (1 μM compound) is recorded as “blocked”. In addition, the CYP2D6 inhibition in data set [4] (3 μM) is 7.8%; in data set [4] (10 μM) it was 21.9%. Further, the “decrease of Caspase-3 activity in OGD neurons” value in data set [5] is listed as “not observed”. Also, in data set [6], the “decrease of Cathepsin activity in OGD neurons” value is on record as “not observed”.

For the compound `Cn1c(=O)[nH]c(=O)c2c1nc(S)n2CC(O)COc1ccc(Cl)cc1` (centres unmarked) [Compound 38], the CYP1A2 inhibition in data set [1] (3 μM) was −7.6%; in data set [1] (10 μM), 10.5%. In data set [3] (0.1 μM compound), the “APP cleavage after OGD” value is reported as “blocked”. The CYP2D6 inhibition was −5.4% in data set [4] (3 μM) and 0.9% in data set [4] (10 μM). The “AEP activity after addition of reducing agent (reversibility)” value in data set [7] was “regained a substantial amount of activity”.
